This data set addresses ATP-dependent translocase ABCB1 (Homo sapiens, UniProt P08183). In words: TP_TRANSPORTER: drug resistance in R-HepG2 cells. Type of data set: functional, cell-based.

Sequence of ATP-dependent translocase ABCB1 (P08183 whole entry): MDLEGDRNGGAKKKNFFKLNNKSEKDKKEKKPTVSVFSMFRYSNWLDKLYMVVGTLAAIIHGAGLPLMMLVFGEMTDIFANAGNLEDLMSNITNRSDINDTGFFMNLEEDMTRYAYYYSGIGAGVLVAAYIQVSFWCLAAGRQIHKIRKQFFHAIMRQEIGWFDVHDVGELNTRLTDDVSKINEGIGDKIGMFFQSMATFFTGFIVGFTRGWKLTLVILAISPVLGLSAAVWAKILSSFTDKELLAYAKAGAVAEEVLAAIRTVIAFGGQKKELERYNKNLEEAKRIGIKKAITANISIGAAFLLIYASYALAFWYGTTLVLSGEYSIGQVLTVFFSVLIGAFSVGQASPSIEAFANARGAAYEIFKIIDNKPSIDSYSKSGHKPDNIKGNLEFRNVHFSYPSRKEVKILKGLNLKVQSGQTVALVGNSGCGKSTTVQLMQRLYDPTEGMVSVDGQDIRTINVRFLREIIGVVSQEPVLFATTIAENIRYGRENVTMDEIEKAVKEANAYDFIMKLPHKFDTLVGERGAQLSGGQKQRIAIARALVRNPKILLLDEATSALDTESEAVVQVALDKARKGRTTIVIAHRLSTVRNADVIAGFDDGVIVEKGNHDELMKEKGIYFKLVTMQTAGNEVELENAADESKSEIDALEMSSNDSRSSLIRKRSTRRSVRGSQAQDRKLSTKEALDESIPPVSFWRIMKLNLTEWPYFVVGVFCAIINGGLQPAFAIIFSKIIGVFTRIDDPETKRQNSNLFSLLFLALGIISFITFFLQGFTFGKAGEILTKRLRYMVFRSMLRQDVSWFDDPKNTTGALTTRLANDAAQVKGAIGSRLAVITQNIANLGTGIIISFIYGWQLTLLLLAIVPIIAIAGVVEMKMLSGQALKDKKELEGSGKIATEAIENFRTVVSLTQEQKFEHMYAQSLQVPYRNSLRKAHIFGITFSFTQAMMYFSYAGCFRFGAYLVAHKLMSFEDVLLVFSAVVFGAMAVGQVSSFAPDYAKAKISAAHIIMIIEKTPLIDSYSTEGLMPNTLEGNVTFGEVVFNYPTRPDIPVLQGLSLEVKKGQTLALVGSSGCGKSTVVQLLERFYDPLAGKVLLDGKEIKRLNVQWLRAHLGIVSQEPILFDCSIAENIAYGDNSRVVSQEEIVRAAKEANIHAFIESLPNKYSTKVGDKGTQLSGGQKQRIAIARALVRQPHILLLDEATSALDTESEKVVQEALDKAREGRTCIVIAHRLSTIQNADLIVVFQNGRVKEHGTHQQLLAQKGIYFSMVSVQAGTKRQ

For the compound `CC(=O)O[C@H]1C(=O)[C@@]2(C)[C@H]([C@H](OC(=O)c3ccccc3)[C@]3(O)C[C@H](OC(=O)[C@H](O)[C@@H](NC(=O)c4ccccc4)c4ccccc4)C(C)=C1C3(C)C)[C@]1(OC(C)=O)CO[C@@H]1C[C@@H]2O` [PACLITAXEL], the Activity entry was “substrate [+]”.
In the case of CISPLATIN it was “substrate [+]”.
For the compound `COc1cccc2c1C(=O)c1c(O)c3c(c(O)c1C2=O)C[C@@](O)(C(=O)CO)C[C@@H]3O[C@H]1C[C@H](N)[C@H](O)[C@H](C)O1` [DOXORUBICIN], the Activity result is “substrate [+]”.

Values taken from ChEMBL document CHEMBL2074243, “Mitochondria-targeting drug oligomycin blocked P-glycoprotein activity and triggered apoptosis in doxorubicin-resistant HepG2 cells” (Chemotherapy, 2004).
